The values below come from patent US8871815B2, “Therapeutic compounds” (Signature Therapeutics, Inc., priority 2007, dated 2014).

Read-outs that look alike come from different tables or passages of the source.

Series [1] concerns Beagle dogs. The settings on record: dogs.
For series [2], the system named is mongrel dogs. As to the kind of experiment: Anesthetic and hemodynamic effects in chronically instrumented mongrel dogs, total intravenous anesthesia. In kind it is in vivo, dog. The procedure:
Assessments included hemodynamic performance parameters such as blood pressure, heart rate, and cardiac output as well as clinical chemistry parameters and EEG analysis.
General anesthesia was induced in the dogs by IV administration of 7 mg/kg […], and the dogs were tracheally intubated and mechanically ventilated. General anesthesia was maintained using 2.2% end-tidal sevoflurane in oxygen. A thoracotomy was performed at the fifth left intercostal space, and heparin-filled catheters were placed in the proximal descending thoracic aorta (P50 pressure transducer Gould, Oxnard, Calif.), and in the right and left atria to provide IV access. An ultrasonic transit-time flow probe (T108, Transonic Systems, Ithaca, N.Y.) was placed around the ascending thoracic aorta. A […] Doppler flow probe (Model HDP-20-3.5, Triton Surgical Technologies, San Diego, Calif.) was placed around the left anterior descending coronary artery. Six MHz sonomicrometer crystals (Hartley, Houston, Tex.) were implanted in the subendocardium. A high fidelity micromanometer (P7, Konigsberg Instruments, Pasadena, Calif.) was inserted into the left ventricle. […]
The dogs were fasted overnight. […] EEG was recorded continuously during the experiment. Arterial blood gas and chemistry measures included pH, pO2, sO2, pCO2, tCO2, carbonate, potassium, sodium, and base excess, and were measured immediately following blood draws using a blood gas and chemistry analyzer (ABL-505, Radiometer, Copenhagen). […] Following stabilization, baseline measurements of EEG, hemodynamics, ECG, and blood gases were recorded. Blood samples were drawn for PK and clinical chemistry, and pressure volume loops were generated and data recorded.
Following induction, the dogs were tracheally intubated, and mechanically ventilated using 50% oxygen in nitrogen throughout the subsequent drug infusion and recovery periods. […] MAP was monitored continuously, and dosing was discontinued immediately if MAP decreased below 50 mmHg at any time or if the heart rate increased over 200 beats per minute. […]

The subject of series [3] is ferrets. As to the kind of experiment: Pro-emetic activity in ferrets. In kind it is in vivo, ferret. The settings on record: 15 min IV infusion at 1 mg/kg/min, administered alone, 6 ferrets, 45 min. An excerpt:
Immediately prior to dosing, food and water were removed.

The subject of series [4] is rats. In words: Separate rat study, bolus IV, 1% in cremaphor, sleep time. It is filed as in vivo. The settings on record: 7 mg/kg bolus IV, rats.

Turning to `CC[C@@H](C)c1cccc([C@H](C)CC)c1O` [Compound 1], the “duration of anesthesia (sleep time)” value in series [1] (5 mg/kg bolus IV) is given as 24 min; in series [1] (10 mg/kg bolus IV), 43 min; in series [1] (15 mg/kg bolus IV), 77 min; in series [1] (30 mg/kg bolus IV), 105 min. Further, in series [2], the “MAP and heart rate results compared to propofol” value was “no statistically significant differences”. Also, in series [2] (IV bolus then stepwise IV infusions 0.25-2.0 mg/kg/min), the “Cardiac output versus baseline” value is “no statistically significant reduction”. Besides, in series [3], the “episodes of vomiting or retching” value is recorded as “did not produce any episodes of vomiting or retching”. Besides, the “Sleep Time (duration of anesthesia)” value in series [4] is 23 min.
